Counter-ions that a name gives are not always drawn.
Test: Bio-distribution in rats 2 hours post injection
Type: in vivo
Experimental: The complex was injected into rats which were sacrificed 2 hours post injection.

Structure (SMILES) | activity excreted in the urine (in words) | liver retention / uptake | activity excreted in the urine | activity retained in the kidneys | other results
O=C(O)CN(CCN(CC(=O)O)CC(=O)O)CCN(CC(=O)O)CC(=O)O | – | – | greater than 95% | – | –
Sc1cccc2cccnc12 [8-mercapto-quinolinehydrochloride] | small amount | about 37% | – | – | blood labelling: small amount; muscle uptake: ~15%; small intestine uptake: ~20%
O=C(O)CC(O)(CC(=O)O)C(=O)O [citric acid] | – | – | over 70% | about 11% | concentration in any other organ: no significant concentration

Further lines, with some results ahead:

activity excreted in the urine (in words) | liver retention / uptake | Structure (SMILES) | activity excreted in the urine | activity retained in the kidneys | other results
the bulk of the injected activity | about 5% | O=C[C@H](O)[C@@H](O)[C@H](O)[C@H](O)CO [d-glucose] | – | ~29% | –
most of the remainder | – | O=P(O)(O)CP(=O)(O)O [methylenediphosphonic acid] | – | – | bone uptake: about 37%

— patent US4311689A, “Method and container for production of diagnostic scanning” (priority 1978, dated 1982)
